# Literature values, collected in US20040126415A1, “Dermal delivery of a water-soluble selective cyclooxygenase-2 inhibitor” (priority 2002, published 2004).
# How the values were obtained:
# COX-1 = COX-1 (Homo sapiens, UniProt P23219)
# COX-2 = biological target: T1, COX-2 (Homo sapiens, UniProt P35354)
# T1 sequence (P35354 18-604): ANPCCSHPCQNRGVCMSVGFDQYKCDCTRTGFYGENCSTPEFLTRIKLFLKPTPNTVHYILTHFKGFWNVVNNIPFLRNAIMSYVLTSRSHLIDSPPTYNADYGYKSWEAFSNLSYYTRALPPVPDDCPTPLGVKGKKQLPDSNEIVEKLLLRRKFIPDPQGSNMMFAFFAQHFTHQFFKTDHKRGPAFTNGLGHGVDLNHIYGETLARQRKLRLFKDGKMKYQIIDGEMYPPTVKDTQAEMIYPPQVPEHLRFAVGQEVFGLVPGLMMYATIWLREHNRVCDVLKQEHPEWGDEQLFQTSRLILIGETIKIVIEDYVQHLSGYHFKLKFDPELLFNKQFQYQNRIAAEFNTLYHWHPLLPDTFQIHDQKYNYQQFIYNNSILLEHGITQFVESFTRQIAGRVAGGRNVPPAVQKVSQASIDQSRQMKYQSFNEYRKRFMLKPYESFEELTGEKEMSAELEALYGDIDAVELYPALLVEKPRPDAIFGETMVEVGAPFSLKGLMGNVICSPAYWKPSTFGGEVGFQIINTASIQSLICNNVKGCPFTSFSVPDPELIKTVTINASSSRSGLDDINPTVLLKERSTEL
# Sequence of COX-1 (P23219 24-599): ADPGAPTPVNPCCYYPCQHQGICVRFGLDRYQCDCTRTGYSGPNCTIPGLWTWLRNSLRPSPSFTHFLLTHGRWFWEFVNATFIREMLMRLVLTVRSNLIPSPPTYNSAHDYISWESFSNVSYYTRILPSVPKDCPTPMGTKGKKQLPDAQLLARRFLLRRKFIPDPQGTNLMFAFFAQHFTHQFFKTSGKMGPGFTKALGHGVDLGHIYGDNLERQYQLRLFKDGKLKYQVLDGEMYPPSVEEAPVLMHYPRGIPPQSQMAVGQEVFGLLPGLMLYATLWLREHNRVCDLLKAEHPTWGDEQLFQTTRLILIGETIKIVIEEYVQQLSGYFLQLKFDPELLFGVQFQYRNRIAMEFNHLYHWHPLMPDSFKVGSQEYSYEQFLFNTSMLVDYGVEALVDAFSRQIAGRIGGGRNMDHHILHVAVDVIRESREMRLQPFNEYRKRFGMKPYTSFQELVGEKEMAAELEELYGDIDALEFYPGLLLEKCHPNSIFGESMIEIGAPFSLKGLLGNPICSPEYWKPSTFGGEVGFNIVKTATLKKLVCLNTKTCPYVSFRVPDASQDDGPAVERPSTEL
Structure (SMILES),in vitro inhibitory activity against COX-1 (COX-1),in vitro inhibitory activity against COX-2 (COX-2)
"CCC(=O)NS(=O)(=O)c1ccc(-c2c(-c3ccccc3)noc2C)cc1 [Parecoxib, N-[[4-(5-methyl-3-phenylisoxazol-4-yl)phenyl]sulfonyl]propanamide]",weak in vitro inhibitory activity,weak in vitro inhibitory activity
"Cc1onc(-c2ccccc2)c1-c1ccc(S(N)(=O)=O)cc1 [valdecoxib, 4-[5-methyl-3-phenylisoxazol-4-yl]benzenesulfonamide]",weak inhibitor,
